Measured values reported in article PMC9623576, “Semisynthesis and Evaluation of Anti-Inflammatory Activity of the Cassane-Type Diterpenoid Taepeenin F and of Some Synthetic Intermediates” (Journal of Natural Products, 2022).
“Also recorded” adds a separate entry of the source.

Columns and labels:
[1] = system: RAW 264.7 monocyte/macrophage murine cells; test: MTT growth inhibition on RAW 264.7 cells; format: cell-based; settings: Mus musculus, RAW264.7, RAW 264.7, MTT; for IC20: 20% growth inhibition; for IC80: 80% growth inhibition
Description: A stock solution was frozen and stored at […]. Before the experiments, this solution was diluted in cell-culture medium to the adequate concentrations for each experiment. […] For nitrite assay, subcytotoxic concentrations (3/4IC50, 1/2IC50, and 1/4IC50), were used to ensure that the NO inhibitory potential was not due to a possible cytotoxic effect. The concentrations of 3/4IC50, 1/2IC50, and 1/4IC50 were used for the cell-cycle analysis. All experiments were measured and compared with control (untreated cells after 24, 48, or 72 h of treatment.)
In all experiments, monolayer cells were grown to 80–90% confluence, in sterile cell culture flasks. All cell lines used were purchased from the cell bank of the University of Granada, Spain.
The cytotoxicity assay was performed by the MTT (3-(4,5-dimethylthiazol-2-yl)-2,5-diphenyltetrazolium bromide) method.[21] […] All tested compounds were prepared in fresh growth medium. After 24 h, an additional 100 μL of medium with the corresponding concentrations of products (only medium in the control wells) was added to the corresponding wells, at various final concentrations (0–100 μg/mL). […] After 1.5 h of incubation, formazan was resuspended in 100 μL of DMSO, and each concentration was tested in triplicate.
Cytotoxicity experimental data were fitted to a sigmoidal function (y = ymax/(x/a)^−b) by nonlinear regression. […] Similar analyses were performed to obtain the IC50 of NO production. All data shown here are representative of at least two independent experiments performed in triplicate. All quantitative data were summarized as the mean ± standard deviation (SD).

[2] = system: LPS-stimulated RAW 264.7 macrophage murine cells; test: RAW 264.7 cell-cycle distribution, PI flow cytometry; format: cell-based; settings: for effect on cell-cycle arrest induced by LPS: 72 h of treatment
Description: Since the anti-inflammatory effect can be related to the ability to change the inflammatory processes induced by LPS in RAW 264.7 cells, including monocyte/macrophage cell differentiation and cell-cycle arrest,[22] we analyzed the cell-cycle distribution in these cells in response to LPS and compounds 16 and 21. The two compounds with the highest antiproliferative and important NO inhibitory effects were selected for this assay. For this purpose, flow cytometry by propidium iodide (PI) staining was used to measure DNA ploidy as well as the distribution of cells in every phase of the cell cycle (Figure S2).
A stock solution was frozen and stored at […]. Before the experiments, this solution was diluted in cell-culture medium to the adequate concentrations for each experiment. For the antiproliferative assay in all cell lines, we determined the concentrations of compounds required for 20, 50, and 80% of inhibition cell growth, IC20, IC50, and IC80, concentrations, respectively, to analyze the complete range of cytotoxicity and to determine the graduated or acute response to these compounds. For nitrite assay, subcytotoxic concentrations (3/4IC50, 1/2IC50, and 1/4IC50), were used to ensure that the NO inhibitory potential was not due to a possible cytotoxic effect. The concentrations of 3/4IC50, 1/2IC50, and 1/4IC50 were used for the cell-cycle analysis. All experiments were measured and compared with control (untreated cells after 24, 48, or 72 h of treatment.)
Cellular subpopulations, with different DNA contents, were visualized, using a fluorescence-activated cell sorter (FACS) at 488 nm in an Epics XL flow cytometer (Coulter Corporation, Hialeah, FL, USA). Changes in DNA levels are characteristic of cell-cycle arrest and cell differentiation.[36] […] Several controls were analyzed in parallel. […] Data were analyzed to determine the percentage of cells in each cell-cycle phase (G0/G1, S, and G2/M).

[3] = system: B16-F10 cells; test: Mitochondrial membrane potential, Rh123/PI flow cytometry; format: cell-based, murine; settings: B16-F10, 72 h; for changes in mitochondrial membrane potential (MMP): IC50 and IC80 concentrations, Rh123/IP
Description: In addition, the loss of part of MMP can be related to the secondary activation of the intrinsic apoptotic pathway as a final event in the extrinsic apoptosis mechanism. Further molecular studies will be necessary to confirm these conclusions.
The electrochemical gradient across the mitochondrial membrane was investigated by analytical flow cytometry, using dihydrorhodamine (DHR). DHR is oxidized in contact with living cells, forming a highly fluorescent product called rhodamine (Rh 123). The emitted fluorescence can be monitored by fluorescence spectroscopy using excitation and emission wavelengths of 500 and 536 nm, respectively.[37]−[39] […] After treatment, the culture medium was renewed by adding fresh medium with DHR to a final concentration of […]. Cells were incubated for 1 h at 37 °C in an atmosphere of 5% CO2 and 95% humidity and subsequently washed and resuspended in PBS with 5 μg/mL of PI. The fluorescence intensity was measured using a FACScan flow cytometer (fluorescence-activated cell sorter). The experiments were performed three times with two replicates per assay.

Structure (SMILES) | IC50 [1] [µM] | IC20 [1] [µM] | IC80 [1] [µM] | effect on cell-cycle arrest induced by LPS [2] | proportion of cells in the S phase ([2]; LPS + compound, 72 h, 1/4IC50 to 3/4IC50, with respect to positive control) [%] | changes in mitochondrial membrane potential (MMP) [3] | population of Rh123 negative cells versus control untreated cells ([3]; IC80 concentration)
COC(=O)[C@]1(C)CCC[C@@]2(C)[C@H]1CC=C1C(C)=C(C(C)C)C(=O)C[C@@H]12 [Compound 16, (1R,4aR,10aR)-Methyl 7-isopropyl-1,4a,8-trimethyl-6-oxo-1,2,3,4,4a,4b,5,6,10,10a-decahydrophenanthrene-1-carboxylate] | 33.1 ± 3.62 | 30.1 ± 0.49 | 33.81 ± 0.08 | could revert the cell-cycle arrest induced by LPS | 69 | did not cause any loss of the mitochondrial membrane potential; also recorded: did not produce any changes in MMP | 
COC(=O)[C@]1(C)CCC[C@]2(C)c3cc(O)c(C=O)c(C)c3CC[C@@H]12 [Compound 21, (1R,4aS,10aR)-Methyl 7-formyl-6-hydroxy-1,4a,8-trimethyl-1,2,3,4,4a,9,10,10a-octahydrophenanthrene-1-carboxylate] | 21.1 ± 0.96 | 17.8 ± 1.34 | 25.3 ± 0.58 | could revert the cell-cycle arrest induced by LPS |  | partial loss of the MMP | higher
